# Test results from article PMC6299835 (Toxicon : official journal of the International Society on …, 2018).
# No end group written: not given here.
# Experiments:
# [1] = tested on: hMrgprX1;Mrgpr-cluster∆−/− transgenic mouse; conditions: in vivo
# [2] = target: human MrgprX1 (hMrgprX1) (Homo sapiens, UniProt Q96LB2); assay: cell-based; assay type: cell-based
# Sequence of human MrgprX1 (hMrgprX1) (Q96LB2 whole entry, looked up): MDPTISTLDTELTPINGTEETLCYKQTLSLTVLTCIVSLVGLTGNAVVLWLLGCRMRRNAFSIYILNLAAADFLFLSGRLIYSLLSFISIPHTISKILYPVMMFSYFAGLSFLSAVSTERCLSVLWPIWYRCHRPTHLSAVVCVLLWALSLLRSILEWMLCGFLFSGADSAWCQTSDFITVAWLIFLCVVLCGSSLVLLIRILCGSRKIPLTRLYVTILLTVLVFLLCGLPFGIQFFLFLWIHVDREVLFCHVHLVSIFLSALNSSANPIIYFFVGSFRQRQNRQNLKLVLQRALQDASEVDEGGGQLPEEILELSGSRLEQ
Substance,Itch-related scratching after intradermal cheek injection of peptide [1],Activation of hMrgprX1 [2],EC50 [2] [nM],Potency in activating hMrgprX1 relative to CNF-Vc1 [2]
HSGILLAWSGPRNRFVRI-NH2 [CNF-Tx2],induces significant scratching,activates,540,at least threefold more potent
WSGPRNRFVRF-NH2 [CNF-Vc1(7–18)],–,can activate,–,–
